Columns and labels:
Type in all cases: binding
[1] = test system: two different monoclonal antibodies (MAbs) and a commercially available Fc-fragment; experiment: STD NMR screening for affinity towards IgG related proteins
Procedure: (§1) The screening procedure was based on in vitro screening using two independent in solution analytical techniques relying on saturation difference transfer NMR (STD NMR) and Surface Plasmon Resonace (SPR) methods.
In the NMR screen 69 substances were tested for affinity towards two different monoclonal antibodies (MAbs) and a commercially available Fc-fragment. Unspecific protein binding was investigated by testing for affinity towards α-amylase. Compounds that were found having affinity towards all three IgG related proteins, but no affinity towards α-amylase were assigned as potential candidates for affinity ligands towards the Fc-part of IgG.
(§2) Further structures (commercially available compounds) surrounding compound I were investigated in solution in order to optimize the affinity ligand candidate. These compounds were subject to a corresponding SPR and NMR analysis for affinity as was presented above. However this time only the Fc-fragment was used in the NMR screening while the SPR analysis was performed with the corresponding test proteins as in the first selection.

Fc-fragment = experiment: SPR screen, Fc-fragment
Procedure: as §1
(§3) In the SPR screen 53 compounds were tested (non-soluble substances were excluded) for affinity towards a monoclonal antibody and a commercially available Fc-fragment. Analysis data were corrected for the different molecular weights and are presented as percentage of the theoretical maximal response.
(§4) In order to select potential candidates for further investigations SPR data were arranged in such a way that all substances with a response higher than 10% for both Fc fragment and IgG were selected as potential candidates. These compounds were compared with the ones indicated by the NMR-screening. It turned out that most of the SPR derived hits had been rejected in NMR screen due to unspecific binding towards α-amylase.
as §2

[2] = test system: monoclonal antibody (IgG); experiment: SPR screen, monoclonal antibody
Procedure: as §1, §3, §4, §2

Row | Compound | outcome of NMR screen (affinity towards all three IgG related proteins, no affinity towards α-amylase) ([1]; STD NMR, two MAbs and Fc-fragment) | SPR response, percentage of the theoretical maximal response (Fc-fragment; Fc fragment, corrected for molecular weight) | SPR response, percentage of the theoretical maximal response ([2]; IgG (monoclonal antibody), corrected for molecular weight) | NMR affinity ([1]; second selection, only the Fc-fragment used in the NMR screening) | ranking for affinity towards Fc-fragment by SPR (Fc-fragment; second selection) | ranking for affinity towards IgG molecule as indicated by SPR ([2]; second selection)
1 | CC(=O)Nc1nc2[nH]c(C)c(Cc3ccccc3)c(=O)n2n1 [Compound I] | selected as potential affinity candidate by both methods | higher than 10% | higher than 10% |  |  | 
2 | CCOC(=O)c1c[nH]c2ncnn2c1=O [Compound II] |  |  |  | positive by NMR | at least medium ranking | high ranking

Source: patent US7625838B2, “[1, 2, 4] Triazolo [1, 5-A] pyrimidine derivatives as chromatographic adsorbent for the selective adsorption of IGG” (GE Healthcare Bio-Sciences AB, priority 2005, dated 2009)
